# Calls of active or inactive are those of the source.
# Columns and labels:
# [1] = biological target: T1, Sentrin-specific protease 8 (Homo sapiens, UniProt Q96LD8); format: functional;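 note: luminescence read-out of SENP8 inhibition, dose-response confirmation following an ultra-high-throughput screen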
# T1 sequence (Q96LD8 whole entry): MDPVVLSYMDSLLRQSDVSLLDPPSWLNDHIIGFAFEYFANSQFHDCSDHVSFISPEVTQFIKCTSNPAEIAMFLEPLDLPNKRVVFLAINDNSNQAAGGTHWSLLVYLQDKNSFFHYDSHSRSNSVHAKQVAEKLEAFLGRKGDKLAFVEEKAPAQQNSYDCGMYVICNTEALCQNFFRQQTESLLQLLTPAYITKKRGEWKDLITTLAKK
# H4 = assay: Luminescence Cell-Based Dose Response HTS to Identify Activators of 5'UTR Stem-Loop Driven Prion Protein mRNA Translation in H4 Neuroglioblastoma Cells. [Related pubchem assays: 1829 (Project Summary), 1814 (Primary HTS)]; format: functional; details: Homo sapiens
# [2] = biological target: T2, Sentrin-specific protease 6 (Homo sapiens, UniProt Q9GZR1); format: functional;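 note: Luminescence-based dose-response confirmatory assay of SENP6 inhibition, following up an ultra-high-throughput screen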
# T2 sequence (Q9GZR1 whole entry): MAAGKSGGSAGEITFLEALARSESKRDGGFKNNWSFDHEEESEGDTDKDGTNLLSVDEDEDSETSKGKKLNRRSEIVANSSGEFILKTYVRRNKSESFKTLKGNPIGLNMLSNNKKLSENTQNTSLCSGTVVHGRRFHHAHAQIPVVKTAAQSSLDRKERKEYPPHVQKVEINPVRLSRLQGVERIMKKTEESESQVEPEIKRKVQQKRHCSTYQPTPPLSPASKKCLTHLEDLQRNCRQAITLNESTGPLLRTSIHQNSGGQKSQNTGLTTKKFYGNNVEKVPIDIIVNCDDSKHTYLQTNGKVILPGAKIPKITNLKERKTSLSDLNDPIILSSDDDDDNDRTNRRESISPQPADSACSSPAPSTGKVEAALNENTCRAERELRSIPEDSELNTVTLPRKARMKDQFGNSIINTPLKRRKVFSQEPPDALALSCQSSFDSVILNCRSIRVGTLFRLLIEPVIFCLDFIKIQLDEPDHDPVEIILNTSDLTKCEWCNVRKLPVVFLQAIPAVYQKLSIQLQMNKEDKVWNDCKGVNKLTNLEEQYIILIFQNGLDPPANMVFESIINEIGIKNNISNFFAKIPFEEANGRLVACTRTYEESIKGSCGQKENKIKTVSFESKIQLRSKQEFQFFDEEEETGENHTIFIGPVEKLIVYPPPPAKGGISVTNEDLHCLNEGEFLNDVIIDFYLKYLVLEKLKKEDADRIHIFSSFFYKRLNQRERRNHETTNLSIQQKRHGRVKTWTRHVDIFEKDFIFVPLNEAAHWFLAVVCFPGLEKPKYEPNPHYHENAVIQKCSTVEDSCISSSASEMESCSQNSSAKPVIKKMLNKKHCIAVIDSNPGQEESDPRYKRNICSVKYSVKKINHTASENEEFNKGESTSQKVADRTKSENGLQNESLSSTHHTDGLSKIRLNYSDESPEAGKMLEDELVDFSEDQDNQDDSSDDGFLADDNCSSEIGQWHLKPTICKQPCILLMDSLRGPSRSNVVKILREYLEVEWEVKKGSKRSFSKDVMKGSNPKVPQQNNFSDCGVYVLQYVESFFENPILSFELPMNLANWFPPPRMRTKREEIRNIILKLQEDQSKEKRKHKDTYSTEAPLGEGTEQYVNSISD
# [3] = biological target: T3, Sentrin-specific protease 7 (Homo sapiens, UniProt Q9BQF6); format: functional;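 note: Luminescence-based dose-response confirmation of ultra-high-throughput screening hits, measuring inhibition of SENP7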
# T3 sequence (Q9BQF6 whole entry): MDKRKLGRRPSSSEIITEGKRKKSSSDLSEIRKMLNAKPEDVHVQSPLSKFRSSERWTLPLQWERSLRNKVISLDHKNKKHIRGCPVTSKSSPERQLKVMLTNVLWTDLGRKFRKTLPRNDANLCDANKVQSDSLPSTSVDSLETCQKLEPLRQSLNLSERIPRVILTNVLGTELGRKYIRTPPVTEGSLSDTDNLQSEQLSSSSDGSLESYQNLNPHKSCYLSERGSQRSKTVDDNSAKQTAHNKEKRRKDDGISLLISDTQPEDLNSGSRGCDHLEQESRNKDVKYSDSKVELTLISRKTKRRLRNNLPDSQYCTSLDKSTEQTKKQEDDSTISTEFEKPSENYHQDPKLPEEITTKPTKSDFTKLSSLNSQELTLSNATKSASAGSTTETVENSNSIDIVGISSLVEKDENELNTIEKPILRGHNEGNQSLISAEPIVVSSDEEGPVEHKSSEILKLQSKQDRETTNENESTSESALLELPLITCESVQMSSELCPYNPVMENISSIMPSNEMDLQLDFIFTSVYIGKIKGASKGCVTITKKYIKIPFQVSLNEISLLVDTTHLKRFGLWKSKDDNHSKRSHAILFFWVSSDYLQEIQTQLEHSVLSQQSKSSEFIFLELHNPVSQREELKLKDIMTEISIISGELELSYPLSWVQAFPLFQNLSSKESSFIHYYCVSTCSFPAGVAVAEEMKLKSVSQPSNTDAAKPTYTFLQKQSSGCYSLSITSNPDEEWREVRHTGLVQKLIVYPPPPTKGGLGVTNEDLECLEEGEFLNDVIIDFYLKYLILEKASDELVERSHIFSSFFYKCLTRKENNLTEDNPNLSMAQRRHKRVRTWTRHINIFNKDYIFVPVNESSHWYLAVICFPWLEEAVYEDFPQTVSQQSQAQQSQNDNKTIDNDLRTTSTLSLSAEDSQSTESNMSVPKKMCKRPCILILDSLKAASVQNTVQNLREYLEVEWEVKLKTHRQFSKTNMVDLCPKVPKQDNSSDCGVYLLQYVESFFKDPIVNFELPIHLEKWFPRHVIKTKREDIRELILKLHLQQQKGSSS
# Caspase-3 = biological target: T4, Caspase-3 (Homo sapiens, UniProt P42574); format: functional;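 note: Dose-response selectivity test against caspase-3 for candidate inhibitors of sentrin-specific proteases (SENPs)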
# T4 sequence (P42574 whole entry): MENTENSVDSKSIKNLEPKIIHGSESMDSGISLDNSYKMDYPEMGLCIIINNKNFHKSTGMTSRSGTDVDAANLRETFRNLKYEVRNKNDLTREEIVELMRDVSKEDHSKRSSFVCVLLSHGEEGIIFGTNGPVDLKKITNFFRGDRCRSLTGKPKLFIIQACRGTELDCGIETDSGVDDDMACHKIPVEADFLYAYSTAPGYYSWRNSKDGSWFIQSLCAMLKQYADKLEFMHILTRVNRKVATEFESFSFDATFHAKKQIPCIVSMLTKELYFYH
# Cytochrome P450 2C19 = Cytochrome P450 2C19 (Homo sapiens, UniProt P33261); assay: Cytochrome panel assay with activity outcomes. Panel member name: p450-cyp2c19 Compounds with AC50 equal or less than 10 uM are considered active; format: functional
# Chain of Cytochrome P450 2C19 (P33261 whole entry): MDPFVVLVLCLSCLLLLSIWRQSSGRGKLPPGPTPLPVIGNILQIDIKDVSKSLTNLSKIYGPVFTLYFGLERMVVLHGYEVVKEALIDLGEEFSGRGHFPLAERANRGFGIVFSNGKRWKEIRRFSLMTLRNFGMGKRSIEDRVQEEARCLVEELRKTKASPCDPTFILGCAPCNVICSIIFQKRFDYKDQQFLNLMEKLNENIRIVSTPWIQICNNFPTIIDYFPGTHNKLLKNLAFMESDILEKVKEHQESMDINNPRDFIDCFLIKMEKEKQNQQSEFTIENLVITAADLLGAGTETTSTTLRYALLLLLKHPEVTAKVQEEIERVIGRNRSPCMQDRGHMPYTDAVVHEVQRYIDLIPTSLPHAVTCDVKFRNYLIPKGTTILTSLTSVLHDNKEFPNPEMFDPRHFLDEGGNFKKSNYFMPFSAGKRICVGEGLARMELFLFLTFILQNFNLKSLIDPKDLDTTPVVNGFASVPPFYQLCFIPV
# Cytochrome P450 2C9 = Cytochrome P450 2C9 (Homo sapiens, UniProt P11712)
# Chain of Cytochrome P450 2C9 (P11712 whole entry): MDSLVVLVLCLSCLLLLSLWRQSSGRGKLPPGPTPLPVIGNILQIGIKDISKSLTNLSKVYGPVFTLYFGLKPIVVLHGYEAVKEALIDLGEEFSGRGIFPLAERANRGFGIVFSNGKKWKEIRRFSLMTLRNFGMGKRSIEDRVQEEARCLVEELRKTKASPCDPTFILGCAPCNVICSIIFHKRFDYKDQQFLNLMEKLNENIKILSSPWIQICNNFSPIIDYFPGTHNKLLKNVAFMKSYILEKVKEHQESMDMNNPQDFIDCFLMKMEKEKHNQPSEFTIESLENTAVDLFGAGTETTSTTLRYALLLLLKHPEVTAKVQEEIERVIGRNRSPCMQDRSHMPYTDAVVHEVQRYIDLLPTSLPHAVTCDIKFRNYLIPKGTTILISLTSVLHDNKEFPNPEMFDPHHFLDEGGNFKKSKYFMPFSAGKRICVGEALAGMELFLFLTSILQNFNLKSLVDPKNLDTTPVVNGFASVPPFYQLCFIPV
# Cytochrome P450 1A2 = biological target: T5, Cytochrome P450 1A2 (Homo sapiens, UniProt P05177);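 note: PubChem cytochrome P450 panel assay, CYP1A2 panel member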
# T5 sequence (P05177 whole entry): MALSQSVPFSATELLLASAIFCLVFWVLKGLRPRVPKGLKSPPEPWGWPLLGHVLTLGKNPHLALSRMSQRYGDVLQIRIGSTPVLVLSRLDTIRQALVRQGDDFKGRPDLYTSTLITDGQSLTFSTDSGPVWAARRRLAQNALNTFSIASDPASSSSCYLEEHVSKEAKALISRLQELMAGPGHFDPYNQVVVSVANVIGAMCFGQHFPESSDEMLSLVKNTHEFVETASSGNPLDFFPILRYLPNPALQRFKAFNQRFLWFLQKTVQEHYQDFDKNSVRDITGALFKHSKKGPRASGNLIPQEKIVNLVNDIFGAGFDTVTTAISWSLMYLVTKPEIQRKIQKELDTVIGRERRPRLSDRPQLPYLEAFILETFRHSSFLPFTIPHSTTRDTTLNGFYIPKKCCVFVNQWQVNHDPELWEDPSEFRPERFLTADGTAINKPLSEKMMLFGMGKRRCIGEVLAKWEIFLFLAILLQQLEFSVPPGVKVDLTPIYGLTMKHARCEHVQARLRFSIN
# HEK293 = assay: cells; details: Homo sapiens;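 note: cells exposed to compound for 14 hours overnight before viability readout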
# Tumor necrosis factor = Tumor necrosis factor (Homo sapiens, UniProt P01375); assay: analog potency on TNFa NF-kB signaling – cell-based, revised, SAR follow-up (AID 2337); format: functional
# Chain of Tumor necrosis factor (P01375 whole entry, the tested form may be a part): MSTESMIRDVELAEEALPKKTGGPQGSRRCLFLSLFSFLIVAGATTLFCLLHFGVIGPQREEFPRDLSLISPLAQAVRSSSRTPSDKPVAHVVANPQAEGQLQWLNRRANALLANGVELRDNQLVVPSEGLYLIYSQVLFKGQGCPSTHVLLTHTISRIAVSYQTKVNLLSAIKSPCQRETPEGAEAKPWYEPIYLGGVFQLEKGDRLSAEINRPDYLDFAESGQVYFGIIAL
# [4] = biological target: T6, Nucleotide-binding oligomerization domain-containing protein 1 (Homo sapiens, UniProt Q9Y239); assay: blockers of NOD1 pathway activity – revised, SAR follow-up (AID 2333); format: functional
# T6 sequence (Q9Y239 whole entry): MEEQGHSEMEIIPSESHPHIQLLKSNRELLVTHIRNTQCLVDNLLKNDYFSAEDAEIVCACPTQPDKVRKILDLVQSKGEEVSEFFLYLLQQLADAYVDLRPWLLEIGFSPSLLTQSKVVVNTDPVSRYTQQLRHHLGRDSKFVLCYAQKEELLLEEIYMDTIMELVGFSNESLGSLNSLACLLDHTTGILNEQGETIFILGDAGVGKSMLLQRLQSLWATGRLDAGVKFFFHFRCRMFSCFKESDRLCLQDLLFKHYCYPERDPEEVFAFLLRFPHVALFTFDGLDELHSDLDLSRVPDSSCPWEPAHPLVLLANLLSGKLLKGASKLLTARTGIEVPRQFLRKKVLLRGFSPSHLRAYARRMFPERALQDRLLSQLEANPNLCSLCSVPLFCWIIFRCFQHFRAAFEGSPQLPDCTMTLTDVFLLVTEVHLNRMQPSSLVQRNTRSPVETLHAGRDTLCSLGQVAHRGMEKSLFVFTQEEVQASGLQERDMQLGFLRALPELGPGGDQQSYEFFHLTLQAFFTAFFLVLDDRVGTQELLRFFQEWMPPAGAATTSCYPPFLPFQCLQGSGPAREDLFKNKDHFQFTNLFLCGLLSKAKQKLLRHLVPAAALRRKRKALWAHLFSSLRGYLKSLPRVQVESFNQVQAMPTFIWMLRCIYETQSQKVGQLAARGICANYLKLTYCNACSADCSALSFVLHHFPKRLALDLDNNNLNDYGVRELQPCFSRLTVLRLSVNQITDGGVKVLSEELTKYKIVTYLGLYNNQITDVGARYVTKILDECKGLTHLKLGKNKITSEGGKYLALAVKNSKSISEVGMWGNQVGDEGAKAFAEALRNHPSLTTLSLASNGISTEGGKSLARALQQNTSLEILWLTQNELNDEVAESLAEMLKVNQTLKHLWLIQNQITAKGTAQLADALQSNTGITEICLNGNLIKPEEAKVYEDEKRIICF
# [5] = Luminescence Cell-Based Dose Retest to Confirm Inhibitors of Cancer Stem Cells. [Related pubchem assays (depositor defined):AID2717, AID2721]; format: functional; details: Homo sapiens
# Cytochrome P450 3A4 = Cytochrome P450 3A4 (Homo sapiens, UniProt P08684);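 note: CYP3A4 tested as one member of a cytochrome P450 panel screen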
# Chain of Cytochrome P450 3A4 (P08684 whole entry): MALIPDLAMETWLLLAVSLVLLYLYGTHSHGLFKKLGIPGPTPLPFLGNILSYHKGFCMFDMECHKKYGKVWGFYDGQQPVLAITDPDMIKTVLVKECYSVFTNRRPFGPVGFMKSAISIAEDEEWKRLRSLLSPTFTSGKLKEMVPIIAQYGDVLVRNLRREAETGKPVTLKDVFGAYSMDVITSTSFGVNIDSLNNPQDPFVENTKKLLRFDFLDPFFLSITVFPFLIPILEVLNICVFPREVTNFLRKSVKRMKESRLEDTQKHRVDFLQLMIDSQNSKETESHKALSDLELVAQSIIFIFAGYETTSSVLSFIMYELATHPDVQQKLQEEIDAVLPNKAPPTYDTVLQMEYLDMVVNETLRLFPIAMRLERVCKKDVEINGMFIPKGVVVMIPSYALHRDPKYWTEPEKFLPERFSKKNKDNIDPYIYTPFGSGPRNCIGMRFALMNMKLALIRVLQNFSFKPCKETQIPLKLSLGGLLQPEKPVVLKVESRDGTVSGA
# [6] = viability of uninfected HEp-2 cells – cell-based, HTS, cytotoxicity control for RSV inhibitor project, dose response (AID 2410); format: functional; details: human respiratory syncytial virus
# BJ [7] = assay: growth inhibition of engineered Ras-driven BJ cells – cell-based, alamar blue fluorescence, cherrypicked samples, dose response (AID 2631); format: functional; details: Homo sapiens;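 note: confirmatory dose-response assay in RAS-dependent BJ fibroblasts engineered with TERT, LT and ST, with cytotoxicity read by fluorescence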
# BJ [8] = assay: cells; format: functional, cell-based; details: Homo sapiens
# BJ [9] = assay: BJ-TERT fibroblast viability loss – cell-based, RAS-independent, luminescence, dose response (AID 1933); format: functional; details: Homo sapiens
# BJ [10] = assay: BJ-TERT-LT-ST fibroblast viability loss – cell-based, RAS-independent, luminescence, dose response (AID 1935); format: functional; details: Homo sapiens;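 note: BJ fibroblasts immortalized with TERT plus LT and ST oncogenes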
# [11] = DRD fibroblast viability loss – cell-based, non-viral oncogenic, luminescence, dose response (AID 1934); format: functional; details: Homo sapiens
Compound,IC50 [1],IC50 [2],IC50 [3],IC50 (Caspase-3),AC50 (Cytochrome P450 2C9),also measured
Cn1c(C(=O)Nc2ccc3c(c2)OCO3)cc2sccc21,19.5 µM (active),16.1 µM (active),4.52 µM (active),14.4 µM (active),–,EC50 (H4): 35 µM (active)
Cc1cc(C(=O)O)c(O)nc1C,–,–,–,–,inconclusive,AC50 (Cytochrome P450 2C19): inconclusive
COc1ccc(OC)c2nc(O)c(CCNC(=O)C3CCCCC3)cc12,–,–,–,–,inconclusive,AC50 (Cytochrome P450 1A2): 20 µM (inconclusive)
N#Cc1cccc(NC(=O)CSc2nc3scc(-c4ccccc4)c3c(=O)[nH]2)c1,–,–,–,–,–,IC50 (HEK293): > 20 µM (inactive); IC50 (Tumor necrosis factor): > 20 µM (inactive); IC50 [4]: > 20 µM (inactive)
Cc1cccc(NC(=O)COc2ccc(Br)cc2C)n1,> 100 µM (inactive),9.12 µM (active),4.31 µM (active),13.9 µM (active),–,–
COc1cccc(/C=N/NC(=O)CSc2nnc(C)n2-c2ccccc2)c1O,–,–,–,–,inconclusive,AC50 (Cytochrome P450 2C19; read-out: AC50): 31.6 µM (inconclusive); AC50 [5]: 11.9 µM (active); AC50 (Cytochrome P450 1A2): 35.5 µM (inconclusive); AC50 (Cytochrome P450 3A4): 4.47 µM (inconclusive)
Nc1cc(Cl)nc(N/N=C/c2c(O)ccc3ccccc23)n1,> 100 µM (inactive),> 100 µM (inactive),5.83 µM (active),48 µM (active),–,–
NS(=O)(=O)c1cc(Cl)c(Cl)c(S(N)(=O)=O)c1 [DICHLORPHENAMIDE],–,–,–,–,inconclusive,–
S=C(N/N=C/c1ccc2ncccc2c1)Nc1ccccc1,–,–,–,–,–,CC50 [6]: 31.2 µM (active); EC50 (BJ [7]): > 133 µM (inactive); EC50 (BJ [8]): 10.7 µM (active); EC50 (BJ [9]): 27.7 µM (active); EC50 (BJ [10]): > 150 µM (inconclusive); EC50 [11]: 14.3 µM (active)
CSc1ccc(NC(=O)c2ccc(CN3CCc4ccccc43)cc2)cc1,–,–,–,–,–,IC50 (HEK293): > 20 µM (inactive); IC50 (Tumor necrosis factor): > 20 µM (inactive); IC50 [4]: > 20 µM (inactive)
COc1ccc(NC(=O)c2cccc(Oc3ccccc3)c2)cn1,16.4 µM (active),15.6 µM (active),4.98 µM (active),17.5 µM (active),–,–
